Source: patent US5807819A, “Peptides useful for altering bone resorption” (priority 1995, dated 1998)
Where a SMILES comes first, the peptide text is derived from it. Bridges are numbered along the chain shown (N, C = ends). [ ]: non-standard residue; d: D form. Tic = O=C(O)[C@@H]1Cc2ccccc2CN1; Pen = CC(C)(S)[C@H](N)C(=O)O; Mpa = O=C(O)CCS

Legend:
[1] = Parathyroid hormone-induced hypercalcemia in mice; format: in vivo, Swiss-Webster mice; conditions: parathyroidectomized mice, 4 hr i.v. peptide infusion, FIG. 9
Description: Parathyroid hormone (PTH) activates osteoclasts, which are involved in bone resorption. Associated with the increased osteoclast activity is an increase in serum calcium. The PTH-induced hypercalcemia assay measures the level of serum calcium, which is an indication of bone resorption in a subject (Fischer et al., Endocrinology 132:1411-1413 (1993), which is incorporated herein by reference).
Swiss-Webster mice, which had been parathyroidectomized two weeks prior to beginning the assay, were obtained from Taconic Lab Animals and Services (Germantown N.Y.). Femoral vein catheters (PE-50 fused with PE10 polyethylene tubing; Becton Dickinson; Parsippany, N.J.) were installed in the mice, flushed and locked with heparinized saline (1:10), sutured to adjacent muscle and internalized within the inguinal space of the incision before closing the incision with wound clips. […]
The experiment was initiated by feeding the mice a calcium-deficient diet overnight, then injecting the mice the following morning with a bolus of 0.2 mg PTH/kg (hPTH 1-34; Bachem; Torrance Calif.), intravenously. […] Various doses of a peptide or vehicle were infused into an animal for 4 hr, then ionized serum calcium again was measured. […] Serum calcium measurements were expressed as the difference between the value 30 min before the PTH pulse and 4 hr after peptide infusion was started. […]

αV β3 integrin receptor [2] = test: Series of in vitro assays of Example II for potency and selectivity (FIG. 2); conditions: for receptor selectivity classification / potency classification: summary of assays; for activity (FIG. 2): minimal-element peptides
Description: Such peptides can include, for example, peptides within the pharmacophore groups exemplified herein or peptides within other pharmacophore groups. […] The selectivity of a peptide for an integrin receptor involved in osteoclast binding to bone can be determined, for example, using the integrin receptor assays and cell attachment and detachment assays described herein.
Comparison of the IC50 values generated using the JY cell assay and the αV β3 ELISA, which measure binding of the αV β3 receptor involved in osteoclast binding to bone, with the αV β5 and α5 β1 receptor-specific ELISAs, which represent receptors that likely are not involved in osteoclast attachment, provides insight into the receptor selectivity of the peptides.

[3] = tested on: platelet αIIb β3 integrin receptor; test: Platelet aggregation assay; format: cell-based; conditions: ADP-induced, platelet-rich plasma from heparinized blood; read-out: IC50 inhibiting platelet aggregation
Experimental: This example provides a method for performing a platelet aggregation assay, which is a measure of peptide binding to the platelet αIIb β3 integrin receptor.
Platelet-rich plasma (PRP) was prepared fresh from heparinized whole blood. 0.6 ml PRP was placed in a 1.5 ml microcentrifuge tube and centrifuged for 4 min at 14,000×g. Following centrifugation, 0.5 ml supernatant (platelet poor plasma; PPP) was transferred to a 1 ml silicon coated aggregometer tube (Chrono-Log Corp.; Havertown Pa.) and placed in the PPP slot of a Chrono-Log Model 400VS aggregometer (see Tschopp et al., Thromb. Haem. 72:119-124 (1994), which is incorporated herein by reference).
Platelet concentration of the PRP sample was determined using a cell counter and the sample was diluted with homologous PPP to obtain 300,000 platelets/μl. 0.5 ml of the diluted PRP was placed in an aggregometer tube with a stir bar and incubated for 5 min at 37° C. without stirring. The tube was transferred to the PRP slot in the aggregometer and the sample was stirred at 1200 rpm for 5-10 min at 37° C. […]
Platelet aggregation was initiated by adding adenosine diphosphate (ADP) to a concentration of 10 μM. Platelet aggregation was measured in 2 mm units from baseline (before ADP addition) to response at two min from the time of ADP addition or maximal response (if before 2 min), whichever is larger. […]

chick osteoclasts = test: Chick cell detachment assay (osteoclasts vs total cells); format: cell-based; conditions: FIG. 5, serum-coated plates
Experimental: Peptides were evaluated for their ability to detach osteoclasts from a matrix consisting of serum-coated microtiter plates.
Briefly, chick long bones (femur and tibia) were dissected free of soft tissue and minced in prewarmed minimum essential medium (MEM, pH 7.2; Irvine Scientific; Irvine, Calif.) with Earl's salts, supplemented with 10% heat-inactivated fetal calf serum (FCS) and 200 mM glutamine and containing 100 μg/ml streptomycin and 100 IU/ml penicillin. Cells were removed from bone fragments by vigorous shaking in a capped centrifuge tube. Large particulate material was allowed to settle prior to removal of the cell suspension. After repeated agitation of the cells with a large transfer pipette, 100 μl aliquots of cells were added in triplicate to Corning 96 well microtiter plates that had been preincubated for 1 hr with 100 μl of MEM/FCS media.
The cells were incubated for 90 min at 37° C. in an atmosphere containing 10% CO2. Following incubation, the cell layers were carefully washed 2× with 200 μl sterile PBS, then 100 μl of fresh MEM/FCS was added. Peptides were diluted in the same medium and added to each well. The cells were incubated overnight as described above. […] 5 min using 0.1% crystal violet and multinucleated osteoclasts were counted by light microscopy. […]

rat osteoclasts = test: Rat osteoclast attachment assay compared with MG63/NRK cell attachment; format: cell-based; conditions: FIGS. 7 and 8, FCS substrate
Experimental: To determine the effect of a peptide on the attachment of rat osteoclasts in vitro, 100 μl aliquots of the rat pup bone cell suspension described in Example II.B.2., above, were added in triplicate to 96 well "MAXISORP" plates coated with specific substrates or with FCS. Substrate coated plates were used to determine the ability of peptides to inhibit attachment or induce detachment of an osteoclast from a ligand such as vitronectin, fibronectin, osteopontin or collagen I (Collaborative Research), which are ligands present in bone. Substrates were added to 96 well plates (50 μl of a 5-10 μg/ml solution in sodium carbonate, pH 9.5) and incubated for 2 hr at 37° C. For FCS control wells, 100 μl 10% FCS was added. Wells were aspirated, then washed 2× with PBS and blocked with 1% bovine serum albumin in PBS for 2 hr at 37° C. Wells were aspirated and washed again 2× with PBS. Cells were seeded in duplicate at 4×10^4 cells/well. […]
Following incubation, the medium and nonadherent cells were removed by aspiration from each well. […] Adherent osteoclasts were counted by light microscopy. […]
MG63 and NRK cell lines were purchased from ATTC (Rockville Md.). […] Following staining, the stain was extracted with 20% acetic acid and the OD562 of the extracted stain was determined. […]
Selectivity of a peptide can be determined by comparing the results of FIGS. 7 and 8 (see, also FIG. 2).

αV β3 integrin receptor [4] = conditions: rabbit, in vivo; cited from earlier work

Molecule: CC(C)[C@@H]1NC(=O)[C@H](CC(=O)O)NC(=O)[C@H](CC(=O)O)NC(=O)CNC(=O)[C@H](CCCNC(=N)N)NC(=O)CCSSC[C@@H](C(N)=O)NC1=O [compound 191] ([Mpa]RGDDVC-NH2; disulfide 1-7)
- PTH-induced rise in serum ionized calcium [1]: decreased the PTH-induced rise in serum ionized calcium in a dose responsive manner

Molecule: CC(=O)N[C@H]1CSSC(C)(C)[C@@H](C(N)=O)NC(=O)[C@@H]2CCCN2C(=O)[C@H](CC(N)=O)NC(=O)[C@H](CC(=O)O)NC(=O)CNC(=O)[C@H](CCCNC(=N)N)NC1=O [compound 228] (Ac-CRGDNP[Pen]-NH2; disulfide 1-7)
- receptor selectivity classification (αV β3 integrin receptor [2]): particularly receptor selective

Molecule: CC(=O)N[C@H]1CSSC[C@@H](C(N)=O)NC(=O)[C@@H]2Cc3ccccc3CN2C(=O)[C@H](CO)NC(=O)[C@H](CC(=O)O)NC(=O)CNC(=O)[C@H](CCCNC(=N)N)NC1=O [compound 812, Ac-CRGDS(Tic)C-NH2] (Ac-CRGDS[Tic]C-NH2; disulfide 1-7)
- activity (FIG. 2) (αV β3 integrin receptor [2]): demonstrate activity
- potency classification (αV β3 integrin receptor [2]): particularly potent

Molecule: COc1ccc(C[C@@H]2NC(=O)[C@H](CC(=O)O)NC(=O)CNC(=O)[C@H](CCCNC(=N)N)NC(=O)CC[C@@H](C(N)=O)NC(=O)[C@H](CCCNC(=N)N)NC2=O)cc1 [compound 940, RGD(YOMe)RE-NH2]
- IC50 [3]: 820 nM

Molecule: CC(=O)N[C@@H]1C(=O)N[C@@H](Cc2ccccc2)C(=O)N[C@@H](C)C(=O)N[C@@H](CCCNC(=N)N)C(=O)NCC(=O)N[C@@H](CC(=O)O)C(=O)N[C@@H](CC(N)=O)C(=O)N2CCC[C@H]2C(=O)N[C@H](C(N)=O)CSSC1(C)C [peptide 214] (Ac-[Pen]FARGDNPC-NH2; disulfide 1-9)
- potency classification (αV β3 integrin receptor [2]): particularly potent

Molecule: CC(C)[C@@H]1NC(=O)[C@H](CC(=O)O)NC(=O)[C@H](CC(=O)O)NC(=O)CNC(=O)[C@H](CCCNC(=N)N)NC(=O)CC[C@@H](C(N)=O)NC1=O [peptide 386, RGDDVE-NH2] (RGDDVE-NH2; lactam N-6)
- selective detachment of osteoclasts compared to other cell types (chick osteoclasts): caused selective detachment of osteoclasts as compared to other cell types
- PTH-induced rise in serum ionized calcium [1]: relatively low level of serum calcium
- activity (FIG. 2) (αV β3 integrin receptor [2]): demonstrate activity
- receptor selectivity classification (αV β3 integrin receptor [2]): particularly receptor selective
- selectivity: osteoclast attachment versus MG63 or NRK attachment (rat osteoclasts): highly active on osteoclast attachment but were less active on MG63 or NRK attachment

Molecule: G(Pen)GRGDSPCA
- neointimal hyperplasia (αV β3 integrin receptor [4]): can inhibit neointimal hyperplasia
